For series [1], the system named is noradrenaline levels in the heart and parietal cortex. The experiment in a line: Noradrenaline levels in heart and parietal cortex of mice 9 h after oral dosing. Format: in vivo, Male NMRI mice. Particulars: oral gavage, 9 h post dose, FIG. 1, compared with prior art DβH inhibitors. Here is the method: Male NMRI mice were obtained from Harlan-Interfauna (Spain) and were kept 10 per cage under controlled environmental conditions (12 h light/dark cycle and room temperature 22±1° C.). Food and tap water were allowed ad libitum and experimentation was performed during daylight hours.
At time=0 h, animals were administered with either test compounds (see FIG. 2) at a given dose or vehicle (water) delivered orally via gavage. At 9 h post dose, the animals were sacrificed by decapitation and heart (left atrium and left ventricle) and brain (parietal cortex) were isolated, weighed and stored in a volume of 0.2 M perchloric acid for 12 h at 4° C. in the dark. Post incubation, the resulting supernatants were collected by centrifuge filtration of incubates ([…]/10 min/˜5000 rpm, 4° C.). Supernatants were stored frozen at −80° C. until analysis. Quantification of dopamine and noradrenaline in supernatants was performed by high pressure liquid chromatography with electrochemical detection.

For series [2] the following is noted: central as well as peripheral effects; cited from earlier work.

In the case of `Fc1cc(F)c2c(c1)CC(n1c(CCNCc3ccccc3)c[nH]c1=S)CO2` (single isomer, unassigned) [formula X], the “effect on noradrenaline levels in the heart and parietal cortex (heart vs brain selectivity)” value in series [1] is “marked selectivity for the heart compared to the brain”.

Take `NCc1c[nH]c(=S)n1[C@H]1CCc2c(F)cc(F)cc2C1` [nepicastat]: in series [2], the “crossing of the blood brain barrier (BBB)” value was “cross the blood brain barrier”.

Values taken from patent publication US8481582B2, “1,3-dihydroimidazole-2-thione derivatives as inhibitors of dopamine-beta-hydroxylase” (Bial-Portela & CA, S.A., priority 2007, dated 2013).
